Assays:
MYD88 = molecular target: T1, MYD88 (Homo sapiens, UniProt Q99836); assay: isoTOP-ABPP and TMT-ABPP cysteine engagement, MYD88; assay type: binding
T1 construct: endogenous in cells
Protocol: Activated or expanded T cells were re-suspended in RPMI media supplemented with 10% FBS, L-glutamine (2 mM), penicillin (100 U/mL), and streptomycin (100 μg/mL) at 2×10^6 cells/mL. The compounds were added to cells as 1000×DMSO stocks and mixed well with the media by pipetting up and down after addition. The cells were kept at 37° C. in 5% CO2 containing incubators for 3 h (or otherwise specified times), then pelleted by centrifugation (524 g, 5 min, 4° C.), washed with cold PBS (10 mL) and transferred to Eppendorf tubes (1 mL PBS). The cells were pelleted again (524 g, 5 min, 4° C.), flash-frozen, and kept at −80° C. until further analysis.
Activated or expanded primary human T cells were re-suspended in RPMI (1×10^6 cells/mL) containing 10% fetal bovine serum (FBS), penicillin (100 U/mL), streptomycin ([…]), and L-glutamine (2 mM). The cells were treated with DMSO or compounds for 3 h, pelleted (524 g, 5 min), washed with PBS, and lysed by sonication (2×8 pulses). Soluble and particulate proteomic fractions were separated by ultracentrifugation (100,000 g, 45 min), and protein concentration was normalized to 1.7 mg/mL using a standard DC protein assay (Bio-Rad). The resulting proteomes were analyzed by competitive isotopic Tandem Orthogonal Proteolysis Activity-Based Protein Profiling (isoTOP-ABPP). […]
The heavy/light isoTOP-ABPP ratios (R values) for each unique peptide (DMSO/compound treated) were quantified with in-house CIMAGE software (Weerapana et al., 2010) using default parameters (3 MS1 acquisitions per peak and signal to noise threshold set to 2.5). Site-specific engagement of cysteine residues was assessed by blockade of IA-alkyne probe labeling. […] Ratios for unique peptide sequences were calculated for each experiment; overlapping peptides with the same modified cysteine (e.g., different charge states, elution times or tryptic termini) were grouped together and the median ratio was reported as the final ratio (R). […]

NuRD complex = assay: Western blot of NuRD complex members in T cells; assay type: cell-based, human; conditions: BPK-25 10 μM
Protocol: FIG. 7B is a scatter plot representation of protein abundance changes caused by BPK-25 (10 μM, 24 h) in two independent replicate experiments, with decreases in NuRD complex components highlighted in red. FIG. 7C is a heatmap of top proteins with decreased abundance in BPK-25-treated T cells showing that the subset of these proteins in the NuRD complex (asterisks) were largely unaltered by other active compounds and blocked in their degradation by co-treatment with the proteasome inhibitor MG132. […] FIG. 7E is a bar graph […] showing time-dependent reductions in NuRD complex members in human T cells treated with BPK-25 (10 μM). Left, representative western blots. Right, quantification of changes in protein. […]
BPK-25 (10 μM) treated expanded T cells were washed with PBS before permeabilization by rotation at 4° C. for 10 min with cytoplasm lysis buffer (10 mM sodium phosphate pH 7.4, 25 mM KCl, 1.5 mM MgCl2, 10% glycerol, and 0.025% NP40 supplemented with 1×HALT protease inhibitor cocktail (Thermo Scientific)). […] Insoluble material was precipitated by centrifugation (12,000 g, […]) and the protein concentration of nuclear extracts was measured using standard BCA assay (Thermo Scientific) and normalized. […] Blots were imaged using fluorescence-labeled secondary antibodies (LI-COR) on the Odyssey CLx Imager.

T1 sequence (Q99836 whole entry): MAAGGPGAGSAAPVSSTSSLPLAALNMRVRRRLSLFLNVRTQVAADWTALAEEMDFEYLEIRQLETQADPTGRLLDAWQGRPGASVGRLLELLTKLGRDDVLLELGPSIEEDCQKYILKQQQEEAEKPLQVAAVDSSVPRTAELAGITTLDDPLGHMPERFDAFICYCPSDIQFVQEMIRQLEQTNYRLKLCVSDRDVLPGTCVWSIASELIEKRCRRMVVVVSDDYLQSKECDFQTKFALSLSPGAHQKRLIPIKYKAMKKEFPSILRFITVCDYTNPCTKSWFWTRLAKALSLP

C=CC(=O)N(Cc1cccc(Cl)n1)c1ccc(C(=O)Nc2ccccc2)nc1 [BPK-25] was tested, and the “labeling of C203 of MYD88” value (MYD88) was “direct labeling of C203”, the “time of initial changes in NuRD complex proteins” value (NuRD complex) was 6 h and the “time of maximal effects on NuRD complex proteins” value (NuRD complex) was 24 h.
